Measured values reported in a flash point compilation (Sun et al. 2020).
Where a name gives a salt, the structure may show the parent alone.

Going from `Cc1cccc(C)c1N` [2,6-dimethylaniline] to `Cc1cccc(C)c1O` [2,6-dimethylphenol], the flash point falls from 91.00 °C to 74.00 °C.

Compared with `CCCCC(CC)COC(=O)CCCCC(=O)OCC(CC)CCCC` (stereo not drawn) [bis(2-ethylhexyl) hexanedioate], `CCCCCCOC(=O)CCCCC(=O)OCCCCCC` [dihexyl hexanedioate] is lower in flash point: 196.00 °C for the first, 163.00 °C for the second.

First: COCCOCCOC [1-methoxy-2-(2-methoxyethoxy)ethane]
Second: CCOCCOCCO [2-(2-ethoxyethoxy)ethanol]
The flash point of the first is lower: 67.00 °C for the first, 96.00 °C for the second.

Compared with `OCc1ccccc1` [phenylmethanol], `CC(=O)OCc1ccccc1` [benzyl acetate] is lower in flash point: 101.00 °C for the first, 91.00 °C for the second.

Compared with `CCCCCOC(=O)c1ccccc1C(=O)OCCCCC` [dipentyl benzene-1,2-dicarboxylate], `C=C(C)C(=O)OCCCCCCCC` [octyl 2-methylprop-2-enoate] is lower in flash point: 181.00 °C for the first, 91.00 °C for the second.

Going from `CCCCCCCC(=O)O` [octanoic acid] to `CCCCCCCCCC(=O)O` [decanoic acid], the flash point rises from 110.00 °C to 113.00 °C.

Going from `Cc1cn(/C=C/C=O)c(=O)[nH]c1=O` [(E)-3-(5-methyl-2,4-dioxopyrimidin-1-yl)prop-2-enal] to `Cc1ccc([N+](=O)[O-])cc1C` [1,2-dimethyl-4-nitrobenzene], the flash point falls from 207.00 °C to 107.00 °C.

Going from `COS(C)(=O)=O` [methyl methanesulfonate] to `CC(=O)C(C)=O` [butane-2,3-dione], the flash point falls from 104.00 °C to 27.00 °C.

Compared with `C=C(C)C(=O)OCCC[Si](OC)(OC)OC` [3-trimethoxysilylpropyl 2-methylprop-2-enoate], `COC(C)CCOC(C)=O` (stereo not drawn) [3-methoxybutyl acetate] is lower in flash point: 92.00 °C for the first, 77.00 °C for the second.

First: CCCCCOC=O [pentyl formate]
Second: CCCCCOC(=O)CC [pentyl propanoate]
The flash point of the first is lower: 26.00 °C for the first, 41.00 °C for the second.

Compared with `Clc1cccc(Cl)c1Cl` [1,2,3-trichlorobenzene], `Cc1cccc(Cl)c1` [1-chloro-3-methylbenzene] is lower in flash point: 112.00 °C for the first, 52.00 °C for the second.

Compared with `CN1CCOCC1` [4-methylmorpholine], `C1CO1` [oxirane] is lower in flash point: 24.00 °C for the first, -18.00 °C for the second.

Going from `OCC(CO)(CO)CO` [2,2-bis(hydroxymethyl)propane-1,3-diol] to `CCCCOCCO` [2-butoxyethanol], the flash point falls from 240.00 °C to 61.00 °C.

Going from `CCN(CC)CC` [N,N-diethylethanamine] to `CCC(=O)CC(C)CC` (stereo not drawn) [5-methylheptan-3-one], the flash point rises from -7.00 °C to 43.00 °C.

Going from `C=C(C)OC(C)=O` [prop-1-en-2-yl acetate] to `CC(=O)OOC(C)=O` [acetyl ethaneperoxoate], the flash point rises from 16.00 °C to 45.00 °C.

First: CCC(C)c1ccccc1O (stereo not drawn) [2-butan-2-ylphenol]
Second: Nc1ccccc1 [aniline]
The flash point of the first is higher: 112.00 °C for the first, 70.00 °C for the second.

Compared with `CC1(C)C2CCC1(C)C(OC(=O)CSC#N)C2` (stereo not drawn), `CC1(C)C2CC[C@@]1(C)C(=O)C2` [(1R)-1,7,7-trimethylbicyclo[2.2.1]heptan-2-one] is lower in flash point: 82.00 °C for the first, 64.00 °C for the second.

First: COc1cc(-c2ccc(N)c(OC)c2)ccc1N [4-(4-amino-3-methoxyphenyl)-2-methoxyaniline]
Second: O=[N+]([O-])c1ccc(-c2ccccc2)cc1 [1-nitro-4-phenylbenzene]
The flash point of the first is higher: 206.00 °C for the first, 143.00 °C for the second.

First: CNC [N-methylmethanamine]
Second: CCC(C)=O [butan-2-one]
The flash point of the first is lower: -7.00 °C for the first, -3.00 °C for the second.

Going from `O=P1(N(CCCl)CCCl)NCCCO1` (stereo not drawn) to `O=P(OCCCl)(OCCCl)OCCCl` [tris(2-chloroethyl) phosphate], the flash point rises from 113.00 °C to 232.00 °C.

Compared with `CCCSC(=O)Cl` [S-propyl chloromethanethioate], `C=COC(=O)CCC` [ethenyl butanoate] is lower in flash point: 62.00 °C for the first, 20.00 °C for the second.

First: C [methane]
Second: Cc1cccc(C#N)c1 [3-methylbenzonitrile]
The flash point of the first is lower: -188.00 °C for the first, 87.00 °C for the second.

First: Cc1ccc(CBr)cc1 [1-(bromomethyl)-4-methylbenzene]
Second: Cc1ccc(C)cc1 [1,4-xylene]
The flash point of the first is higher: 98.00 °C for the first, 27.00 °C for the second.

Compared with `C=COC` [methoxyethene], `C=CCCC` [pent-1-ene] is higher in flash point: -56.00 °C for the first, -51.00 °C for the second.

Compared with `OC=CCCO` [but-1-ene-1,4-diol], `ClCC=CCCl` [1,4-dichlorobut-2-ene] is lower in flash point: 128.00 °C for the first, 53.00 °C for the second.

Compared with `CCC(O)CC` [pentan-3-ol], `CCC(C)N` (stereo not drawn) [butan-2-amine] is lower in flash point: 30.00 °C for the first, -9.00 °C for the second.

Going from `O=C(O)C(O)C(O)C(=O)O` (stereo not drawn) [2,3-dihydroxybutanedioic acid] to `CC(O)C(=O)O` (stereo not drawn) [2-hydroxypropanoic acid], the flash point falls from 210.00 °C to 113.00 °C.

First: C=CC(=O)OCC(CC)CCCC (stereo not drawn) [2-ethylhexyl prop-2-enoate]
Second: C=CC(=O)OCCCCCC(C)C [6-methylheptyl prop-2-enoate]
The flash point of the first is lower: 82.00 °C for the first, 91.00 °C for the second.

First: NCCCCCN [pentane-1,5-diamine]
Second: CCCCCCN [hexan-1-amine]
The flash point of the first is higher: 62.00 °C for the first, 29.00 °C for the second.

Compared with `CCC1CO1` (stereo not drawn) [2-ethyloxirane], `CC1COC(C)CO1` (stereo not drawn) [2,5-dimethyl-1,4-dioxane] is higher in flash point: -12.00 °C for the first, 24.00 °C for the second.

Going from `CC1CC(=O)O1` (stereo not drawn) [4-methyloxetan-2-one] to `O=C1CCC(=O)O1` [oxolane-2,5-dione], the flash point rises from 60.00 °C to 157.00 °C.

Compared with `CCOP(=S)(OCC)Oc1nc(Cl)c(Cl)cc1Cl`, `CC(C)CCCCCOC(=O)C(C)Oc1cc(Cl)c(Cl)cc1Cl` (stereo not drawn) [6-methylheptyl 2-(2,4,5-trichlorophenoxy)propanoate] is higher in flash point: 28.00 °C for the first, 207.00 °C for the second.

First: C=Cc1ccc(C)nc1 [5-ethenyl-2-methylpyridine]
Second: Cc1ccc(C)c(N)c1 [2,5-dimethylaniline]
The flash point of the first is lower: 74.00 °C for the first, 94.00 °C for the second.

First: CC(C)=CCCC(C)=CC=O [3,7-dimethylocta-2,6-dienal]
Second: CCCC(C)OC(C)=O (stereo not drawn) [pentan-2-yl acetate]
The flash point of the first is higher: 102.00 °C for the first, 32.00 °C for the second.

First: CCCCCC(=O)CC [octan-3-one]
Second: CCCCCCCCCCCC(C)=O [tridecan-2-one]
The flash point of the first is lower: 46.00 °C for the first, 107.00 °C for the second.

First: CCCCCCOCCO [2-hexoxyethanol]
Second: CCCCCCCS [heptane-1-thiol]
The flash point of the first is higher: 91.00 °C for the first, 46.00 °C for the second.

First: C=C(C)C=O [2-methylprop-2-enal]
Second: C=CC=O [prop-2-enal]
The flash point of the first is higher: 2.00 °C for the first, -26.00 °C for the second.

Going from `CC(C)CCCCCCC=O` [8-methylnonanal] to `CCC[CH2][Sn]([Cl])([Cl])[CH2]CCC` [dibutyl(dichloro)stannane], the flash point rises from 85.00 °C to 168.00 °C.

Going from `NCCCNCCCN` [N'-(3-aminopropyl)propane-1,3-diamine] to `CCCCCCCCCCCCCCCC[Si](Cl)(Cl)Cl` [trichloro(hexadecyl)silane], the flash point rises from 79.00 °C to 146.00 °C.

Going from `COC(=O)C(Cl)Cl` [methyl 2,2-dichloroacetate] to `CCC(=O)OC(=O)CC` [propanoyl propanoate], the flash point falls from 80.00 °C to 63.00 °C.

First: Nc1ccc(F)cc1 [4-fluoroaniline]
Second: Nc1ccc([N+](=O)[O-])cc1 [4-nitroaniline]
The flash point of the first is lower: 74.00 °C for the first, 199.00 °C for the second.

First: C#CCOS(=O)OC1CCCCC1Oc1ccc(C(C)(C)C)cc1 (stereo not drawn) [[2-(4-tert-butylphenoxy)cyclohexyl] prop-2-ynyl sulfite]
Second: CC(C)(C)c1ccc(O)cc1 [4-tert-butylphenol]
The flash point of the first is lower: 28.00 °C for the first, 113.00 °C for the second.

Going from `O=C(Cl)c1ccc(C(=O)Cl)cc1` [benzene-1,4-dicarbonyl chloride] to `Oc1ccc(O)cc1` [benzene-1,4-diol], the flash point falls from 180.00 °C to 165.00 °C.

Going from `COCC(C)OCC(C)OC(C)CO` (stereo not drawn) [2-[1-(1-methoxypropan-2-yloxy)propan-2-yloxy]propan-1-ol] to `CC(CCl)OC(C)CCl` (stereo not drawn) [1-chloro-2-(1-chloropropan-2-yloxy)propane], the flash point falls from 121.00 °C to 85.00 °C.

First: c1ccc(-c2ccccc2)cc1.c1ccc(Oc2ccccc2)cc1 [1,1'-biphenyl;phenoxybenzene]
Second: c1ccc(N(c2ccccc2)c2ccccc2)cc1 [N,N-diphenylaniline]
The flash point of the first is lower: 124.00 °C for the first, 180.00 °C for the second.

Compared with `N#Cc1ccccc1C#N` [benzene-1,2-dicarbonitrile], `Nc1cccc2ccccc12` [naphthalen-1-amine] is lower in flash point: 162.00 °C for the first, 157.00 °C for the second.

Compared with `CCN(CC)C(=O)c1cccnc1` [N,N-diethylpyridine-3-carboxamide], `CCc1cccc(CC)c1N(COC)C(=O)CCl` [2-chloro-N-(2,6-diethylphenyl)-N-(methoxymethyl)acetamide] is higher in flash point: 113.00 °C for the first, 137.00 °C for the second.

Compared with `CCSC(C)CC1CC(=O)C(/C(CC)=N/OC/C=C/Cl)=C(O)C1` (stereo not drawn), `CCCOC(=O)c1cc(O)c(O)c(O)c1` [propyl 3,4,5-trihydroxybenzoate] is higher in flash point: 72.00 °C for the first, 187.00 °C for the second.

First: CCC(C(c1ccc(Cl)cc1)c1ccc(Cl)cc1)[N+](=O)[O-] (stereo not drawn) [1-chloro-4-[1-(4-chlorophenyl)-2-nitrobutyl]benzene]
Second: C1=CC2C3C=CC(C3)C2C1 (stereo not drawn) [tricyclo[5.2.1.02,6]deca-3,8-diene]
The flash point of the first is higher: 150.00 °C for the first, 32.00 °C for the second.

First: O=P(N1CC1)(N1CC1)N1CC1 [1-[bis(aziridin-1-yl)phosphoryl]aziridine]
Second: NCCN1CCNCC1 [2-piperazin-1-ylethanamine]
The flash point of the first is higher: 163.00 °C for the first, 93.00 °C for the second.

Going from `CC(O)C#N` (stereo not drawn) [2-hydroxypropanenitrile] to `CCCOP(=S)(OCCC)OP(=S)(OCCC)OCCC`, the flash point rises from 77.00 °C to 149.00 °C.

For `C#C` [acetylene], the flash point was -18.00 °C.
